Here are results for eight molecules from patent US10537103B2, “Antibacterial composition containing an isomer mixture of monosaccharide alkyl monoacetals or monoethers” (TEREOS STARCH & SWEETENERS BELGIUM, priority 2014, dated 2020).

One data set relates to S. aureus (ATCC 292213). Kind of data set: Minimum inhibitory concentration (MIC), 96-well microplate microdilution. In kind it is cell-based. Conditions: Staphylococcus aureus, ATCC292213, 18 h at 37° C. As to the method: (§1) The bacteriostatic properties of the derivatives are evaluated by measuring their minimum inhibitory concentration (MIC) on the bacteria tested. These measurements are made using the 96-well microplate microdilution method according to the conditions defined below.
(§2) The minimum inhibitory concentrations (MIC) are tested on Gram-positive bacterial strains according to the recommendations of the “Clinical Laboratory Standards Institute” (Clinical-Laboratory-Standards-Institute, 6th ed. Approved standard M100-S17. CLSI, Wayne, Pa., 2007).
(§3) The Gram-positive bacteria studied are as follows: L. monocytogenes (CIP 103575), E. faecalis (ATCC® 29212™) and S. aureus (ATCC® 292213™).
(§4) The cultures studied, freshly isolated (after incubation on a blood agar at 37° C. for 18 h), are taken up in sterile water (10 mL) until obtaining a 0.5 McFarland (Mc) suspension i.e. 1 to 2×10^8 CFU (bacteria)/cm^3. The bacterial suspension was then diluted to obtain a final concentration of 5×10^5 CFU/cm^3.
(§5) Each well contains an identical quantity of Mueller-Hinton medium (a rich medium for bacterial culture) and bacteria with final 5×10^5 CFU/cm^3.
(§6) The test compounds of interest are solubilized in 2.5% m of ethanol before being diluted to different concentrations two by two.
(§7) On the multiwell plate, a first series has been planned comprising the culture medium without the test compound of interest. It corresponds to the growth control (control well). These controls serve as reference for comparing bacterial growth with that of the subsequent wells comprising different concentrations of the test compound of interest. The second series of wells comprises the mother solution for the test compound of interest for a concentration in the wells of 4 mM. Each series of wells was diluted two by two until the last series for a final concentration of 0.003 mM. Each concentration is duplicated in the same plate. The plate is incubated for 18 h at 37° C. […] If there is antibacterial activity, the bacterial growth is inhibited, which means that no turbidity or bacterial residue is present.
(§8) Tests have been conducted on Gram-positive bacteria with methyl glucopyranoside derivatives. […] After sterilization the solutions are diluted in water. […] Because precipitates formed in the solutions, the effect of these methyl glucopyranoside C10 and C12 acetals was not able to be evaluated. The results obtained for antimicrobial tests on the 3 bacterial strains L. monocytogenes (CIP 103575), E. faecalis (ATCC® 29212) and S. aureus (ATCC® […]) are summarized in Table 1.
(§9) The sorbitan C5, C6, C8, C10 and C12 acetals and ethers were then tested under the same conditions as previously and on the same bacterial strains (see example 5).
On the technique in general: Dilution methods test growth across graded concentrations, often in twofold steps.

In another data set the test system is E. faecalis (ATCC 29212). The data set is described as above. In kind it is cell-based. As to conditions: 18 h at 37° C.; for MIC: Enterococcus faecalis, ATCC29212, 18 h. How it is done: as §1, §2, §3, §4, §5, §6, §7, §8, §9
The test system of data set [1] is L. monocytogenes (CIP 103575). The description is as above. Format: cell-based. Conditions: Listeria monocytogenes, CIP103575, 18 h at 37° C. As to the method:
as §1, §2, §3, §4, §5, §6, §7, §8, §9

Data set [2] can be described thus: Water solubility of test solutions. As to conditions: solutions diluted in water, 2.5% m ethanol; precipitates formed. Format: physicochemical. How it is done:
as §8

A further data set has as its system S. aureus. Conditions: cited from earlier work.
The test system of a further data set is L. monocytogenes. As to conditions: cited from earlier work.
Data set [3] relates to Gram-positive bacteria (L. monocytogenes, E. faecalis, S. aureus). Description: MIC / antimicrobial activity stated for the Gram-positive strains studied together. Conditions: concentrations less than or equal to 4 mM. In kind it is cell-based. How it is done: as §1, §2, §3, §4
Each well contains an identical quantity of Mueller-Hinton medium (a rich medium for bacterial culture) and bacteria with final 5×10^5 CFU/cm^3. […]
Tests have been conducted on Gram-positive bacteria with methyl glucopyranoside derivatives. […] Because precipitates formed in the solutions, the effect of these methyl glucopyranoside C10 and C12 acetals was not able to be evaluated. […]

The structures appear in SMILES notation. ≈ marks a conversion by molar mass, not a printed value.

With `CCCCC1OCC2O[C@H](OC)C(O)C(O)[C@@H]2O1` (stereo partly drawn) [Compound 1a, Methyl 4,6-O-pentylidene α-D-glucopyranoside], the MIC (in the data set on S. aureus (ATCC 292213); in the data set with E. faecalis (ATCC 29212); in data set [1]) was above 4 mM throughout.
Turning to `CCCCCC1OCC2O[C@H](OC)C(O)C(O)[C@@H]2O1` (stereo partly drawn) [Compound 1b, Methyl 4,6-O-Hexylidene α-D-glucopyranoside], the MIC (in the data set on S. aureus (ATCC 292213); in the data set on E. faecalis (ATCC 29212); in data set [1]) was above 4 mM in each case.
In the case of `CCCCCCCC1OCC2O[C@H](OC)C(O)C(O)[C@@H]2O1` (stereo partly drawn) [Compound 1c, Methyl 4,6-O-Octylidene α-D-glucopyranoside], the MIC stood at 4 mM (≈ 1220 µg/mL) in the data set on S. aureus (ATCC 292213), 2 mM (≈ 609 µg/mL) against E. faecalis (ATCC 29212) and 2 mM (≈ 609 µg/mL) in data set [1]. Further, in the data set with E. faecalis (ATCC 29212) (listed as AcC8 MeGlu), the “Minimum inhibitory concentration (MIC) E. faecalis” value amounted to 4 mM (≈ 1220 µg/mL).
On to `CCCCCCCCCC1OCC2O[C@H](OC)C(O)C(O)[C@@H]2O1` (stereo partly drawn) [Compound 1d, Methyl 4,6-O-Decylidene α-D-glucopyranoside], for which the melting point stood at 72 °C. Besides, in data set [2], the water solubility entry is “low water solubility”.
In turn, `CCCCCCCCCCCC1OCC2O[C@H](OC)C(O)C(O)[C@@H]2O1` (stereo partly drawn) [Compound 1g, Methyl 4,6-O-Dodecylidene α-D-mannopyranoside] came in with a melting point of 104 °C.
Take `CCCCCCCCCCCC1OCC2O[C@H](OC)C(O)C(O)[C@H]2O1` (stereo partly drawn) [Compound 1h, Methyl 4,6-O-Dodecylidene α-D-galactopyranoside]: the melting point was 115 °C.
On to `CCCCCCCCCCCC(=O)OCC(O)CO` (centres unmarked) [ML, monolaurine], for which the “Minimum inhibitory concentration (MIC) S. aureus, compounds known in the prior art” value in the data set with S. aureus is 0.04 mM (≈ 11 µg/mL). Besides, the “Minimum inhibitory concentration (MIC) L. monocytogenes, compounds known in the prior art” value in the data set with L. monocytogenes was 0.04 mM (≈ 11 µg/mL).
As for `CCCCCCCCCCCC=O` [dodecanal], the “antimicrobial activity on the different bacterial strains” value in data set [3] is “no antimicrobial activity”.

The MIC is the lowest concentration that inhibits growth of the organism. A high value points to weaker potency. A word on the melting point: it is the temperature of the solid-liquid transition.
